Assay [1] deals with T1, FimHtrCl#4 (Escherichia coli, UniProt P08191, G94E/N91S/S99N/V48A).
T1 construct: coding for the lectin domain of FimH (residues 1-158) with a C-terminal 6-histidine tag; made in house; host or cells: E. coli HB101 (lacking the fim operon), periplasmic extract, plasmid pMAS146
As to the kind of experiment: biochemical. The format is binding, E. coli UPEC (Cl#4) strain. The method, then: (§1) To investigate if these variations reflect differences in sugar binding at the molecular level, the dissociation constants of a series of mannosides for the FimH lectin domain from a fecal (F18) and from a UPEC (Cl#4) strain were determined. […] For comparison, binding to FimHtrJ96 was also investigated. Both F18 and Cl#4 FimH lectin domains were cloned, expressed, and purified in the same way as FimHtrJ96 (Schembri et al., 2000). These two lectin domains differ from the lectin domain of FimHJ96 by substitutions Val27Ala, Asn70Ser and Ser78Asn. In addition, FimHCl#4 differs from the other two variants by a Gly73Glu substitution. […] Five different tri-mannosides corresponding to high-mannose substructures were synthesized, and their binding to FimHtrJ96, FimHtrF18 and FimHtrCl#4 measured using our [^3H]-mannose displacement assay (Table 3). Alpha-D-mannose binding was first directly measured for each of the FimH variants.
(§2) [^3H]alpha-D-mannose was obtained from Amersham. […] Syntheses of tri-mannosides was as reported earlier by Oscarson and co-workers (1993). Weighed amounts of tri-mannosides were dissolved in double distilled water to give stock solutions of 0.87 M man-(1,2)-man-(1,2)-man, 0.25 M man-(1,2)-man-(1,3)-man, 0.27 M man-(1,2)-man-(1,6)-man, 0.30 M man-(1,3)-man-(1,6)-man, 0.13 M man-(1,6)-man-(1,6)-man. Similarly, alkyl mannosides were dissolved in double distilled water to give stock solutions of 100 mM methyl mannoside, 59.8 mM ethyl mannoside, 45.9 mM propyl mannoside, 51.9 mM butyl mannoside, 17.3 mM pentyl mannoside, 20.8 mM hexyl mannoside, 15.3 mM heptyl mannoside, 15.2 mM octyl mannoside. pNPalphaMan and MeUmbalphaMan (6 mg each) were dissolved in 20 μl DMSO and diluted to 20 mM using double distilled water. Binding experiments were performed using six different concentrations of [^3H]-alpha-D-mannose (final concentrations 43.5 μM, 29.0 μM, 19.3 μM, 12.9 μM, 8.6 μM, 5.7 μM). FimHtrJ96 obtained by growing bacteria in minimal medium was used in all binding experiments. 180 μl protein at a concentration of about 500 nM was mixed with 20 μl of the radioactive ligand, and incubated at 37° C. for 20 min. To separate free ligand from bound, the mixture was rapidly filtrated through a Protran BA 85 Cellulose-nitrate filter (Schleicher & Schuell, Dassel, Germany), and washed once with 1 ml of ice-cold 1× PBS (phosphate buffered saline). Filter-bound radioactivity was measured by scintillation spectrometry within 24 hours. The displacement experiments were performed using six different concentrations (final concentrations in the range 0.0˜43.5 μM) of the inhibitor, in the presence of 43.5 μM [^3H]-alpha-D-mannose. 20 μl radioactive ligand, 20 μl inhibitor at decreasing concentrations, and 160 μl protein (500 nM) were mixed, and the experiments performed as above. All experiments were performed in duplicates. For determination of KD for α-D-mannose, a hyperbolic curve (y=P1x/(P2+x), where P2=KD) was fitted to the data. For the displacement experiments, the curve y=P1/(P2+x), where P2 is the concentration of the inhibitor displacing 50% of the labelled ligand, [I]0.5 was used instead. To calculate the inhibitor dissociation constant (KI) the Cheng & Prusoff equation (KI=[I]0.5/([L]/KL+1); KL is the constant of dissociation for the ligand) (Cheng and Prusoff, 1973), was used when both the concentration of the radioactive ligand (L) and the displacing agent (I) are in excess over the protein (LT>>PT;IT>>PT, T indicates total concentration). […] A plot of IT/((1−Y)*(LT/KL)−Y) against 1/Y gives a straight line with a slope of KI.

Assay [2] has as its target T2, FimHtrF18 (Escherichia coli, UniProt P08191, N91S/S99N/V48A).
T2 construct: coding for the lectin domain of FimH (residues 1-158) with a C-terminal 6-histidine tag; made in house; host or cells: E. coli HB101 (lacking the fim operon), periplasmic extract, plasmid pPKL316
As to the kind of experiment: biochemical. The format is binding, E. coli fecal (F18) strain. On the procedure: as §1, §2

Data on 1 molecule can be found in patent US20080171706A1, “Anti-Adhesive Compounds to Prevent and Treat Bacterial Infections” (priority 2004, published 2008).

Each structure is given as a SMILES string.

T2 sequence (P08191 22-179 V48A/N91S/S99N): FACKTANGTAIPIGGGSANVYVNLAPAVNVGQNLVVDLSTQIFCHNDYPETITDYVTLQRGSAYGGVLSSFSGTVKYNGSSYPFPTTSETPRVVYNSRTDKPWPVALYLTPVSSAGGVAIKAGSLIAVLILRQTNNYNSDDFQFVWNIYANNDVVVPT
T1 sequence (P08191 22-179 V48A/N91S/G94E/S99N): as the sequence (P08191 22-179 V48A/N91S/S99N) above, with G73E counted along it

In general, Kd refers to the concentration at which binding is half-saturated. Take `OC[C@H]1O[C@H](O)[C@@H](O)[C@@H](O)[C@@H]1O` [Mannose, α-D-mannose]: the dissociation constant (Kd) in assay [1] (KD CI#4, Table 3, [3H]-mannose displacement assay (mannose measured directly)) was 10.7 µM; in assay [1] (KD, mannose binding measured directly, FimHtrCl#4), 11 µM; in assay [2] (KD F18, Table 3, [3H]-mannose displacement assay (mannose measured directly)), 9.8 µM; in assay [2] (KD, mannose binding measured directly, FimHtrF18), 10 µM. Moreover, in assay [1] (Table 3, calculated from KD), the “ΔG° CI#4” value was -7.0 kcal/mol. For the same molecule, the “ΔG° F18” value in assay [2] (Table 3, calculated from KD) is -7.1 kcal/mol.
